# Assay results as given in patent US5821061A, “Method and reagent for detecting a ligand in a sample” (Toyo Boseki Kabushiki Kaisha, priority 1995, dated 1998).
# Tests used:
# [1] = tested on: alkaline phosphatase of Bacillus badius TE3592; assay: Substrate specificity of the alkaline phosphatase of Bacillus badius TE3592; format: biochemical; details: enzyme of Bacillus badius TE3592; for Relative Activity: substrate specificity, p-nitrophenyl phosphate = 100
# [2] = tested on: alkaline phosphatase of Bacillus badius TE3593; assay: Substrate specificity of the alkaline phosphatase of Bacillus badius TE3593; format: biochemical; details: enzyme of Bacillus badius TE3593; for Relative Activity: substrate specificity, p-nitrophenyl phosphate = 100
# [3] = tested on: alkaline phosphatase of Bacillus badius TE3597; assay: Substrate specificity of the alkaline phosphatase of Bacillus badius TE3597; format: biochemical; details: enzyme of Bacillus badius TE3597; for Relative Activity: substrate specificity, p-nitrophenyl phosphate = 100
# [4] = literature; temperature not given; cited from earlier work
# [5] = literature; cited from earlier work
Compound,Substrate specificity (acts on) [1],Relative Activity [1],Substrate specificity (acts on) [2],Relative Activity [2],Substrate specificity (acts on) [3],Relative Activity [3],Specific activity [4] [U/mg],Stability (in words) [5]
O=P(O)(O)OCC(O)CO (racemic) [DL-α-Glycerophosphate],acts on,37.9,acts on,71.4,acts on,67.0,,
O=P(O)(O)OC1O[C@H](CO)[C@@H](O)[C@H](O)[C@H]1O (stereo partly drawn) [Glucose-1-phosphate],,0,,1.44,acts on,25.0,,
O=P(O)(O)OC[C@H]1OC(O)[C@H](O)[C@@H](O)[C@@H]1O (stereo partly drawn) [Glucose-6-phosphate],acts on,14.8,acts on,44.3,acts on,34.5,,
NC(=O)c1ccc[n+]([C@@H]2O[C@H](COP(=O)([O-])OP(=O)(O)OC[C@H]3O[C@@H](n4cnc5c(N)ncnc54)[C@H](OP(=O)(O)O)[C@@H]3O)[C@@H](O)[C@H]2O)c1 [NADP],acts on,15.4,acts on,90.5,acts on,15.4,,
NCCOP(=O)(O)O [Phosphoethanolamine],acts on,44.4,acts on,73.8,acts on,67.0,,
O=P(O)(O)OC(CO)CO [β-Glycerophosphate],acts on,49.7,acts on,78.1,acts on,67.5,,
"alkaline phosphatase derived from Escherichia coli: alkaline phosphatase derived from Escherichia coli, used for dephosphorylation in molecular biology",,,,,,,60,good stability
